Source: article PMC4947982 (Journal of Medicinal Chemistry, 2016)

Settings: 5 mM DMSO-solutions

Solubility in DMSO, low solubility:
CC(C)(C)c1ccc(-c2cn(-c3cc(C(=O)O)cc(-c4ccc(C5CCNCC5)cc4)c3)nn2)cc1 [Compound 79, 5-(4-(4-(tert-Butyl)phenyl)-1H-1,2,3-triazol-1-yl)-4′-(piperidin-4-yl)-[1,1′-biphenyl]-3-carboxylic Acid]
CCCCCOc1ccc(-c2cn(-c3cc(C(=O)O)cc(-c4ccc(C5CCNCC5)cc4)c3)nn2)cc1 [Compound 82, 5-(4-(4-(Pentyloxy)phenyl)-1H-1,2,3-triazol-1-yl)-4′-(piperidin-4-yl)-[1,1′-biphenyl]-3-carboxylic Acid]
COc1ccc(-c2cn(-c3cc(C(=O)O)cc(-c4ccc(C5CCNCC5)cc4)c3)nn2)cc1OC [Compound 95, 5-(4-(3,4-Dimethoxyphenyl)-1H-1,2,3-triazol-1-yl)-4′-(piperidin-4-yl)-[1,1′-biphenyl]-3-carboxylic Acid]
O=C(O)c1cc(-c2ccc(C3CCNCC3)cc2)cc(-n2cc(-c3cc4ccccc4o3)nn2)c1 [Compound 101, 5-(4-(Benzofuran-2-yl)-1H-1,2,3-triazol-1-yl)-4′-(piperidin-4-yl)-[1,1′-biphenyl]-3-carboxylic Acid]
